pEC50, pIC50: −log10 of the molar value. Calls of active or inactive are those of the source. The rule behind the calls is not given here.
Key:
Mus musculus [1] = assay: Inhibition of MEK-mediated ERK phosphorylation in tumor of human HT-29 cells expressing B-Raf V600E mutant xenografted nude mouse at 100 mg/kg, po after 8 hrs by Western blot analysis relative to control; assay type: functional; conditions: HT-29, 8 h
Mus musculus [2] = assay: Inhibition of MEK-mediated ERK phosphorylation in po dosed human HT-29 cells expressing B-Raf V600E mutant xenografted nude mouse tumor by Western blot analysis; assay type: functional, organism-based
[3] = AUC (0 to 12 hrs) in human MIAPaCa2 cells expressing K-Ras G12C mutant xenografted nude mouse at 25 mg/kg, po bid; assay type: ADME, organism-based, MIA PaCa-2; parameters: time < 12 hr, dose 25 mg/kg, route oral; conditions: in vivo
Mus musculus [4] = assay: Toxicity in human HT-29 cells expressing B-Raf V600E mutant xenografted nude mouse assessed as gross signs of adverse effect at 500 mg/kg, po administered weekly once for 3 weeks; assay type: organism-based; parameters: dose 500 mg/kg, route oral; conditions: in vivo, 504 h
NCI-H460 [5] = assay: Antitumor activity against human H460 cells expressing K-Ras Q61H mutant xenografted in nude mouse assessed as tumor growth inhibition at 25 mg/kg, po bid; assay type: functional; conditions: read-out: GI
Mus musculus [6] = assay: Average drug concentration in human MIAPaCa2 cells expressing K-Ras G12C mutant xenografted nude mouse plasma at 200 mg/kg, po qd; assay type: ADME, organism-based, MIA PaCa-2; parameters: dose 200 mg/kg, route oral; conditions: in vivo
[7] = target: T1, Dual specificity mitogen-activated protein kinase kinase 1 (Homo sapiens, UniProt Q02750); assay: Inhibition of MEK1 in human MIA PaCa-2 cells assessed as inhibition of ERK phosphorylation by Western blot analysis; assay type: cell-based
T1 sequence (Q02750 whole entry): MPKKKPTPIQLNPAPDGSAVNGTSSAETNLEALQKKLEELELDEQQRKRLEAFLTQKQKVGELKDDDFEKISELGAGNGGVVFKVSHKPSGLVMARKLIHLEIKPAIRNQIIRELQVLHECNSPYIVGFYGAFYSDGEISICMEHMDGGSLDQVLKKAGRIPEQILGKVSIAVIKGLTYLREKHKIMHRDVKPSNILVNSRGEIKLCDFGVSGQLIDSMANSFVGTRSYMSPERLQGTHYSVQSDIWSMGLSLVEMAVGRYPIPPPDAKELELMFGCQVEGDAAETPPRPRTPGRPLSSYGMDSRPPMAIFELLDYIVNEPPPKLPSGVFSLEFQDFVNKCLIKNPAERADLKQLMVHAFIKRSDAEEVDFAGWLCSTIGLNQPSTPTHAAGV

[8] = Drug level in human HT-29 cells expressing B-Raf V600E mutant xenografted nude mouse tumor at 100 mg/kg, po after 4 hrs; assay type: ADME, organism-based, Neoplasm; parameters: dose 100 mg/kg, route oral; conditions: read-out: Drug uptake
HT-29 = assay: Antitumor activity against human HT-29 cells expressing B-Raf V600E mutant xenografted in nude mouse assessed as tumor growth inhibition at 25 mg/kg, po bid; assay type: functional; conditions: read-out: GI
[9] = Plasma concentration in human HT-29 cells expressing B-Raf V600E mutant xenografted nude mouse at 100 mg/kg, po after 4 hrs; assay type: ADME, organism-based; parameters: dose 100 mg/kg, route oral
[10] = Cmax in human HT-29 cells expressing B-Raf V600E mutant xenografted nude mouse at 50 mg/kg, po bid; assay type: ADME, organism-based; parameters: dose 50 mg/kg, route oral; conditions: in vivo
Mus musculus [11] = assay: Average drug concentration in human H460 cells expressing K-Ras Q61H mutant xenografted nude mouse plasma at 25 mg/kg, po bid; assay type: ADME, organism-based; parameters: dose 25 mg/kg, route oral; conditions: in vivo
[12] = Plasma concentration in human LOX cells expressing B-Raf V600E mutant xenografted nude mouse at 100 mg/kg, po after 8 hrs; assay type: ADME, organism-based; parameters: dose 100 mg/kg, route oral
[13] = AUC (0 to 12 hrs) in human H460 cells expressing K-Ras Q61H mutant xenografted nude mouse at 100 mg/kg, po bid; assay type: ADME, organism-based; parameters: time < 12 hr, dose 100 mg/kg, route oral; conditions: in vivo
[14] = Drug level in human HT-29 cells expressing B-Raf V600E mutant xenografted nude mouse tumor at 50 mg/kg, po after 8 hrs; assay type: ADME, organism-based, Neoplasm; parameters: dose 50 mg/kg, route oral; conditions: read-out: Drug uptake
NCI-H460 [15] = assay: Antitumor activity against human H460 cells expressing K-Ras Q61H mutant xenografted in nude mouse assessed as tumor growth inhibition at 50 mg/kg, po bid; assay type: functional; conditions: read-out: GI
[16] = target: T2, Dual specificity mitogen-activated protein kinase kinase; MEK1/2 (Homo sapiens) (UniProt P36507+Q02750); conditions: HT-29, 2 to 10 uM
T2 sequence (P36507 whole entry, looked up): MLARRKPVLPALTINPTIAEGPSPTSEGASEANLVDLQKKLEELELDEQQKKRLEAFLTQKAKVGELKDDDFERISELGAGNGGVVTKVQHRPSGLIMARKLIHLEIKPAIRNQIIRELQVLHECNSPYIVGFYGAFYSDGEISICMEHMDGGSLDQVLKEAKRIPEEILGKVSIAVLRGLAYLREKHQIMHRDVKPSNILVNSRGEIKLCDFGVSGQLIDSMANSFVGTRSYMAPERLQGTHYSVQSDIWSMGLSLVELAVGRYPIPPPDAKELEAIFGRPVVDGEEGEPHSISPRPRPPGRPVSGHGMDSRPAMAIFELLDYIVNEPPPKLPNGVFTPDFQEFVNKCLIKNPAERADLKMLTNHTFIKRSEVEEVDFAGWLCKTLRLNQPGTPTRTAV
T2 sequence (Q02750 whole entry, looked up): as the sequence (Q02750 whole entry) above
Description: Inhibition of MEK1/2 phosphorylation in human HT-29 cells at 2 to 10 uM by Western blot analysis

[17] = target: T1, Dual specificity mitogen-activated protein kinase kinase 1; assay: Inhibition of MEK1 in human LOX cells assessed as inhibition of ERK phosphorylation by Western blot analysis; assay type: cell-based
Mus musculus [18] = assay: Average drug concentration in human MIAPaCa2 cells expressing K-Ras G12C mutant xenografted nude mouse plasma at 100 mg/kg, po bid; assay type: ADME, organism-based, MIA PaCa-2; parameters: dose 100 mg/kg, route oral; conditions: in vivo
[19] = Plasma concentration in human LOX cells expressing B-Raf V600E mutant xenografted nude mouse at 100 mg/kg, po after 2 hrs; assay type: ADME, organism-based; parameters: dose 100 mg/kg, route oral
Mus musculus [20] = assay: Inhibition of MEK-mediated ERK phosphorylation in tumor of human HT-29 cells expressing B-Raf V600E mutant xenografted nude mouse at 100 mg/kg, po after 4 hrs by Western blot analysis relative to control; assay type: functional; conditions: HT-29, 4 h
[21] = AUC (0 to 12 hrs) in human H460 cells expressing K-Ras Q61H mutant xenografted nude mouse at 50 mg/kg, po bid; assay type: ADME, organism-based; parameters: time < 12 hr, dose 50 mg/kg, route oral; conditions: in vivo
[22] = AUC (0 to 12 hrs) in human LOX cells expressing B-Raf V600E mutant xenografted nude mouse at 25 mg/kg, po bid; assay type: ADME, organism-based; parameters: time < 12 hr, dose 25 mg/kg, route oral; conditions: in vivo
[23] = Cmax in human H460 cells expressing K-Ras Q61H mutant xenografted nude mouse at 50 mg/kg, po bid; assay type: ADME, organism-based; parameters: dose 50 mg/kg, route oral; conditions: in vivo
[24] = Drug level in human LOX cells expressing B-Raf V600E mutant xenografted nude mouse tumor at 100 mg/kg, po after 4 hrs; assay type: ADME, organism-based, Neoplasm; parameters: dose 100 mg/kg, route oral; conditions: read-out: Drug uptake
Mus musculus [25] = assay: Inhibition of MEK-mediated ERK phosphorylation in po dosed human HT-29 cells expressing B-Raf V600E mutant xenografted nude mouse plasma by Western blot analysis; assay type: functional, organism-based; conditions: HT-29, Plasma
[26] = Cmax in human MIAPaCa2 cells expressing K-Ras G12C mutant xenografted nude mouse at 200 mg/kg, po qd; assay type: ADME, organism-based, MIA PaCa-2; parameters: dose 200 mg/kg, route oral; conditions: in vivo
Mus musculus [27] = assay: Average drug concentration in human H460 cells expressing K-Ras Q61H mutant xenografted nude mouse plasma at 50 mg/kg, po bid; assay type: ADME, organism-based; parameters: dose 50 mg/kg, route oral; conditions: in vivo
[28] = target: T2, Dual specificity mitogen-activated protein kinase kinase; MEK1/2 (Homo sapiens); conditions: HT-29, 2 to 10 uM; remark: listed apart in the source
Description: Inhibition of MEK1/2 in human HT-29 cells assessed as upregulation of p27 expression at 2 to 10 uM by Western blot analysis

Mus musculus [29] = assay: Inhibition of MEK-mediated ERK phosphorylation in tumor of human LOX cells expressing B-Raf V600E mutant xenografted nude mouse at 100 mg/kg, po after 2 hrs by Western blot analysis relative to control; assay type: functional
[30] = Drug level in human HT-29 cells expressing B-Raf V600E mutant xenografted nude mouse tumor at 50 mg/kg, po after 4 hrs; assay type: ADME, organism-based, Neoplasm; parameters: dose 50 mg/kg, route oral; conditions: read-out: Drug uptake
Mus musculus [31] = assay: Average drug concentration in human LOX cells expressing B-Raf V600E mutant xenografted nude mouse plasma at 6.25 mg/kg, po bid; assay type: ADME, organism-based; parameters: dose 6.25 mg/kg, route oral; conditions: in vivo
[32] = AUC (0 to 24 hrs) in human MIAPaCa2 cells expressing K-Ras G12C mutant xenografted nude mouse at 200 mg/kg, po qd; assay type: ADME, organism-based, MIA PaCa-2; parameters: time < 24 hr, dose 200 mg/kg, route oral; conditions: in vivo
[33] = Plasma concentration in human HT-29 cells expressing B-Raf V600E mutant xenografted nude mouse at 50 mg/kg, po after 8 hrs; assay type: ADME, organism-based; parameters: dose 50 mg/kg, route oral
[34] = Cmax in human MIAPaCa2 cells expressing K-Ras G12C mutant xenografted nude mouse at 25 mg/kg, po bid; assay type: ADME, organism-based, MIA PaCa-2; parameters: dose 25 mg/kg, route oral; conditions: in vivo
Mus musculus [35] = assay: Toxicity in human LOX cells expressing B-Raf V600E mutant xenografted nude mouse assessed as gross signs of adverse effect at 500 mg/kg, po administered weekly once for 3 weeks; assay type: organism-based; parameters: dose 500 mg/kg, route oral; conditions: in vivo, 504 h
[36] = Antitumor activity against human LOX cells expressing B-Raf V600E mutant xenografted in nude mouse assessed as tumor growth inhibition at 12.5 mg/kg, po bid; assay type: functional; conditions: read-out: GI
MIA PaCa-2 = assay: Antitumor activity against human MIAPaCa2 cells expressing K-Ras G12C mutant xenografted in nude mouse assessed as tumor growth inhibition at 100 mg/kg, po bid; assay type: functional; conditions: read-out: GI
[37] = Cmax in human LOX cells expressing B-Raf V600E mutant xenografted nude mouse at 6.25 mg/kg, po bid; assay type: ADME, organism-based; parameters: dose 6.25 mg/kg, route oral; conditions: in vivo

- EC50 (Mus musculus [2]): 1001 ng/g
- AUC at 12 h [3]: 12700 ng·h/mL
- Cave (Mus musculus [6]): 2758 ng/mL
- pIC50 [7]: 7.16
- concentration at 4 h [8]: 945 ng/g
- concentration at 4 h [9]: 6030 ng/mL
- Cmax [10]: 1300 ng/mL
- Cave (Mus musculus [11]): 733 ng/mL
- concentration at 8 h [12]: 1410 ng/mL
- AUC at 12 h [13]: 62900 ng·h/mL
- concentration at 8 h [14]: 906 ng/g
- inhibition [16]: Active
- pIC50 [17]: 7.66
- Cave (Mus musculus [18]): 2725 ng/mL
- concentration at 2 h [19]: 6300 ng/mL
- AUC at 12 h [21]: 23300 ng·h/mL
- AUC at 12 h [22]: 10000 ng·h/mL
- Cmax [23]: 8080 ng/mL
- concentration at 4 h [24]: 2630 ng/g
- pEC50 (Mus musculus [25]): 5.47
- Cmax [26]: 15500 ng/mL
- Cave (Mus musculus [27]): 1942 ng/mL
- inhibition [28]: Active
- concentration at 4 h [30]: 1490 ng/g
- Cave (Mus musculus [31]): 331 ng/mL
- AUC at 24 h [32]: 66200 ng·h/mL
- concentration at 8 h [33]: 1260 ng/mL
- Cmax [34]: 3960 ng/mL
- Cmax [37]: 750 ng/mL
Structure (SMILES): C[C@@H](c1ccccc1)[C@@H](C(=O)Nc1ccc(I)cc1F)N1C(=O)N[C@H](c2ccc(OC[C@H](O)CO)cc2)C1=O
- inhibition in vivo at 100 mg/kg (Mus musculus [1]): 0%
- Activity (Mus musculus [4]): Non-toxic
- inhibition in vivo at 25 mg/kg (NCI-H460 [5]): 64%
- inhibition in vivo at 25 mg/kg (HT-29): 65%
- inhibition in vivo at 50 mg/kg (NCI-H460 [15]): 83%
- inhibition in vivo at 100 mg/kg (Mus musculus [20]): 79%
- inhibition in vivo at 100 mg/kg (Mus musculus [29]): 86%
- Activity (Mus musculus [35]): Non-toxic
- inhibition in vivo at 12.5 mg/kg [36]: 99%
- inhibition in vivo at 100 mg/kg (MIA PaCa-2): > 100%

Source: ChEMBL document CHEMBL1955803, “Preclinical in vivo evaluation of efficacy, pharmacokinetics, and pharmacodynamics of a novel MEK1/2 kinase inhibitor RO5068760 in multiple tumor models” (Mol Cancer Ther, 2010)
